Marks after values point to notes of the source that are not given here.
Legend:
HepG2 cells [1] = experiment: Uptake of 14C-ALA, 14C-SDA and 14C-EPA by HepG2 cells; format: in vitro ADME; conditions: for radiolabeled fatty acid taken up by the cells: 20 μM complexed to fatty acid free BSA, within the first six hours of incubation; for uptake by HepG2 cells, comparison (FIG. 1): 20 μM, 6, 24 and 48 hours
Experimental: To a culture medium containing HepG2 cells was added 20 μM ^14C-ALA, ^14C-SDA or ^14C-EPA complexed to fatty acid free BSA. The amount of ^14C-ALA, ^14C-SDA or ^14-EPA EPA Taken up by the HepG2 cells was measured 6 hours, 24 hours and 48 hours after addition of the fatty acid. A scintillation counter was used to measure the total amount of radioactivity in the HepG2 cells and the amount remaining in the medium.

HepG2 cells [2] = experiment: Metabolism of radiolabeled fatty acids to long chain n-3 PUFAs (EPA, DHA) in HepG2 cells; format: in vitro ADME
Experimental: HepG2 cells were allowed to take up ^14C-ALA or ^14C-SDA as described in Example 2. The total amount of ^14C-EPA, ^14C-DPA and ^14C-DHA present in the HepG2 cells was measured 6 hours, 24 hours and 48 hours after addition of the fatty acid by argentation thin layer chromatography (TLC). The amount of each fatty acid present as a band on the TLC plate was quantified by electronic autoradiography using an Instant Imager supplied by Packard (Meriden, Conn.).
HepG2 cells were allowed to take up ^14C-ALA, ^14C-SDA or ^14C-EPA as described in Example 2. The amount of ^14C-EPA and ^14C-DHA present in the HepG2 cells was measured 6 hours, 24 hours and 48 hours after addition of the fatty acids by argentation thin layer chromatography (TLC) as described in Example 3. The amount of ^14C-EPA and ^14C-DHA present as bands on the TLC plate were quantified by electronic autoradiography using an Instant Imager as described in Example 3.

[3] = test system: Min/+ mouse model of intestinal cancer; experiment: Intestinal polyp formation in the Min/+ mouse model of intestinal cancer; format: in vivo; set-up: Avg. large intestine tumor size: unit not given here; conditions: Min/+ mice; for Total small intestine tumors/group / Avg. large intestine tumors/mouse / Avg. small intestine tumor size / Avg. small intestine tumors/mouse / Avg. large intestine tumor size / Avg. large intestine tumor load / Total Avg. overall tumor load / Total Avg. overall tumor size / Total Avg. tumors/mouse / Avg. small intestine tumor load: 10 g/day human equivalent dose (3% wt.) or sulindac 320 ppm; for Avg. large intestine tumors/mouse / Avg. small intestine tumor size / Avg. small intestine tumors/mouse / Avg. large intestine tumor size / Avg. large intestine tumor load / Total Avg. overall tumor load / Total Avg. overall tumor size / Total Avg. tumors/mouse / Avg. small intestine tumor load: mean ± SEM; for Avg. large intestine tumor size: only animals bearing colonic tumors; for Avg. large intestine tumor load / Avg. small intestine tumor load: tumor number × tumor size; for Total Avg. overall tumor load / Total Avg. overall tumor size / Total Avg. tumors/mouse: large and small intestine
Experimental: The efficacy of select n-3 and n-6 polyunsaturated fatty acids was evaluated in the Min/+ mouse model of intestinal cancer. The following fatty acid ethyl esters were tested for their effect on intestinal polyp formation: 1) ALA-EE; 2) SDA-EE; 2) EPA-EE; 4) DHA-EE; 5) GLA-EE ([…], 18:3 n-6); and 6) CLA-EE (conjugated linoleic acid; c9t11-18:2 (77%)+c9c11-18:2 (18%)+other isomers (5%)).
These fatty acid ethyl esters were added to the US17 diet to provide 10 g/day human equivalent dose (3% wt.). The NSAID, sulindac (320 ppm), served as the positive control. In order to maintain a 17% fat (37 en%) content in the US17 diet, oleic acid (18:1 n-9) was removed from the US17 diet in an amount equal to the amount of the fatty acid ethyl ester that was added. Mice were received at approximately five weeks of age and were fed the test diets upon receipt. After seven weeks on the respective test diet, the mice were sacrificed and the intestinal polyps were counted and measured.

[4] = format: in vivo, rats; conditions: for sum of long chain n-3 PUFAs (EPA+DPA n-3, and DHA) in liver tissue, rank order of dose dependent accumulation (FIG. 9): rat, in vivo
Excerpt: (§1) Mice were fed a US17 diet containing α-linolenic acid ethyl ester (ALA-EE), stearidonic acid ethyl ester (SDA-EE), eicosapentaenoic acid ethyl ester (EPA-EE), or docosahexaenoic acid ethyl ester (DHA-EE) in an amount equivalent to a human western diet containing 1, 3 or 10 g/day of the fatty acid (g/day human equivalent dose). In order to maintain a 17% fat (37 en %) content in the US17 diet, oleic acid (18:1 n-9), as an oleic acid cassette, was removed from the US17 diet in an amount equal to the amount of fatty acid ester that was added. Oleic acid was selected as the replacement fatty acid because literature reports indicate that oleic acid is neutral with respect to inflammation and cancer.
(§2) After one month on the respective US17-based diets, the mice were sacrificed and the fatty acid composition of each of their livers was analyzed by gas chromatography. The results of these analyses are pressured in FIG. 8.
The method used was as described in Example 6 except that rats were used in place of mice.

[5] = set-up: species or system Mice; conditions: mouse, in vivo
Excerpt: The method used was a non-radioactive, dose response, metabolic end-point study.
as §1, §2

[6] = Metabolism in mice, time course analysis using radiolabeled fatty acids (mouse liver); conditions: mice on US17 diet, intraperitoneal 10 μCi, at 24 hours
Experimental: The method used was a time course study using ^14C-labeled fatty acids.
Mice were fed the US17 diet for a period of one month in order to achieve steady-state fatty acid metabolism. After achieving steady-state fatty acid metabolism, the mice were administered an intraperitoneal injection containing 10 μCi of ^14C-ALA, ^14C-SDA, ^14C-EPA OR ^14C-DHA. Mice were sacrificed 3 hours, 8 hours or 24 hours post-injection, and the total amount of ^14C-EPA, ^14C-DPA n-3 and ^14C-DHA was measured by argentation thin layer chromatography followed by direct electronic autoradiography, as described in Example 3.

HT-29 cells = experiment: Primary tumor growth in the nude mouse/HT-29 cancer model; format: in vivo; conditions: nude mice, HT-29 cells in footpad, US17 diet containing stearidonic acid 3% (10 g/day human equivalent dose), after 35 days
Experimental: The efficacy of stearidonic acid (18:4n-3) in inhibiting primary tumor growth was evaluated using the nude mouse/HT-29 model. The nude mouse/HT-29 model has been described previously. Hernandez-Alcoceloa R., Fernandez, F., Lacal, J C, Cancer Res., 59(13), 312-18 (1999); Fantini, J., Cancer J., 5(2) (1992).
Nude (i.e., immunodeficient) mice were fed the US17 diet for three weeks. HT-29 cells were cultured in RPMI-1640 medium supplemented with fetal bovine serum, penicillin, and streptomycin (Gibco, Grand Island, N.Y.) and maintained in a CO2 atmosphere at 37° C. After achieving the optimal cell density, the HT-29 cells were rinsed and then suspended in phosphate buffered saline (PBS). A cell suspension was made in MATRIGEL (Becton Dickinson Labware, Bedford, Mass.). The suspension was ⅔ by volume cells in PBS and ⅓ by volume MATRIGEL. MATRIGEL provides an extracellular matrix secreted by […]. The matrix contains angiogenic and cell proliferation growth factors that aid in HT-29 cell attachment and proliferation as a primary tumor.
One million cells were injected in a 30 μl volume into the subplanter area of the righthind footpad of the nude mice. […] The amount of primary tumor growth was measured by measuring the change in mouse footpad volume over time. Footpad volume was measured with a plethysmometer (Ugo Basile, Camerio-Varese, Italy).

[7] = Arachidonic acid level in phospholipid fraction of small intestine, Min/+ mouse; format: in vivo; conditions: Min/+ mice, fed as ethyl esters, 10 g/day human equivalent dose in US17 diet
Experimental: Fatty acid composition was determined in the small intestine because that is where the vast majority of polyps form. These fatty acid esters were added to the US17 diet as discussed in Example 8. The arachidonic acid level in the phospholipid fraction of the small intestines of the mice was determined by gas chromatography. In FIG. 11, bars labeled with the same letter (e.g., control and CLA, both labeled with a “b”) have values which, statistically, are not different.

[8] = fatty acid ethyl ester 10 g/day human equivalent dose (3% wt.) in US17 diet or sulindac 320 ppm, seven weeks
[9] = large intestine and small intestine, versus US17 diet, 10 g/day human equivalent dose

| sum of long chain n-3 PUFAs (EPA+DPA n-3, and DHA) in liver tissue, rank order of dose dependent accumulation (FIG. 9) [4] | sum of long chain n-3 PUFAs (EPA+DPA n-3+DHA) in liver tissue, rank order of dose dependent increase (FIG. 8) [5] | Structure (SMILES) | Total small intestine tumors/group ([3]; seven weeks) | Avg. large intestine tumors/mouse ([3]; seven weeks) | Avg. small intestine tumor size ([3]; seven weeks) | Avg. small intestine tumors/mouse ([3]; seven weeks) | Avg. large intestine tumor size ([3]; seven weeks) | Avg. large intestine tumor load ([3]; seven weeks) | Total large intestine tumors/group [3, 8] | Total Avg. overall tumor load ([3]; seven weeks) | Total Avg. overall tumor size ([3]; seven weeks) | Total Avg. tumors/mouse ([3]; seven weeks) | further results |
| --- | --- | --- | --- | --- | --- | --- | --- | --- | --- | --- | --- | --- | --- |
| – | – | CC/C=C\C/C=C\C/C=C\C/C=C\C/C=C\CCCC(=O)O [EPA, eicosapentaenoic acid] | 176 | 0.9 ± 0.3^abcd | 1.05 ± 0.03^b mm | 17.6 ± 2.2^cd | 2.48 ± 0.39^ab | 2.25 ± 0.75^bcd mm | 9 | 20.28 ± 2.23^cd mm | 1.11 ± 0.04^cd mm | 18.5 ± 2.2^a | radiolabeled fatty acid taken up by the cells (HepG2 cells [1]): Approximately 95%; uptake by HepG2 cells, comparison (FIG. 1) (HepG2 cells [1]): taken up equally; amount of EPA that remained after incubation with EPA itself (HepG2 cells [2]; 20 μM): 63% |
| DHA-EE>EPA-EE>SDA-EE>ALA-EE | DHA-EE>EPA-EE>SDA-EE>ALA-EE | CC/C=C\C/C=C\C/C=C\C/C=C\C/C=C\C/C=C\CCC(=O)OCC [DHA-EE, docosahexaenoic acid ethyl ester] | – | – | – | – | – | – | – | – | – | – | – |
| – | – | CC/C=C\C/C=C\C/C=C\C/C=C\C/C=C\C/C=C\CCC(=O)O [DHA, docosahexaenoic acid] | 280 | 1.8 ± 0.4^a | 1.16 ± 0.04^ab mm | 28.0 ± 5.6^bc | 3.01 ± 0.20^a | 5.06 ± 0.85^a mm | 18 | 35.60 ± 7.10^bc mm | 1.20 ± 0.04^bc mm | 29.8 ± 5.9^bc | order of metabolism to 14C-EPA + 14C-DPA n-3 + 14C-DHA in mouse liver (FIG. 6) [6]: DHA=EPA>SDA>ALA; effectiveness in inhibiting polyp formation and development in the large intestine ([3]; 10 g/day human equivalent dose): no efficacy; Avg. small intestine tumor load ([3]; seven weeks): 33.15 ± 8.09^bc mm |
| – | – | CC/C=C\C/C=C\C/C=C\C/C=C\CCCCC(=O)O [SDA, stearidonic acid] | 185 | 0.2 ± 0.1^d | 1.07 ± 0.02^ab mm | 18.5 ± 1.9^c | 1.50 ± 0.00^b | 0.30 ± 0.20^d mm | 2 | 20.19 ± 2.24^cd mm | 1.08 ± 0.02^d mm | 18.7 ± 1.9^a | less primary tumor growth (footpad volume) than US17 diet (HT-29 cells): 33%; radiolabeled fatty acid taken up by the cells (HepG2 cells [1]): Approximately 95%; uptake by HepG2 cells, comparison (FIG. 1) (HepG2 cells [1]): taken up equally; level of arachidonic acid in liver tissue (FIG. 9) ([4]; rats, US17 diet with 1, 3 or 10 g/day human equivalent dose, one month): greater decrease in the level of arachidonic acid than did either ALA or EPA; metabolism to long chain n-3 PUFAs, comparison (FIG. 2 to FIG. 3) (HepG2 cells [2]): faster than that of ALA; rate of metabolism to EPA and further to DHA relative to ALA (HepG2 cells [2]): approximately twice that of ALA; metabolized to 14C-fatty acid end products (EPA or DHA) or intermediates (20:4 n-3, 22:5 n-3, 24:5 n-3) (HepG2 cells [2]; 20 μM): ~95%; decreasing the level of arachidonic acid in the small intestine (phospholipid fraction, FIG. 11) [7]: more effective than ALA, EPA and DHA; effectiveness in inhibiting polyp formation and development in the large intestine ([3]; 10 g/day human equivalent dose): comparable to that of sulindac; effectiveness in inhibiting polyp formation and development in the small intestine ([3]; 10 g/day human equivalent dose): comparable to that of EPA; decrease in polyp load (number×size) [3, 9]: 56%; decrease in polyp number [3, 9]: 47%; decrease in polyp size [3, 9]: 18%; Avg. small intestine tumor load ([3]; seven weeks): 19.90 ± 2.11^cd mm; Total large intestine tumors/group, figure in brackets (animals bearing tumors/animals in group) [3, 8]: 2/10 |
| DHA-EE>EPA-EE>SDA-EE>ALA-EE | DHA-EE>EPA-EE>SDA-EE>ALA-EE | CC/C=C\C/C=C\C/C=C\CCCCCCCC(=O)OCC [ALA-EE, α-linolenic acid ethyl ester] | – | – | – | – | – | – | – | – | – | – | – |
| DHA-EE>EPA-EE>SDA-EE>ALA-EE | DHA-EE>EPA-EE>SDA-EE>ALA-EE | CC/C=C\C/C=C\C/C=C\C/C=C\C/C=C\CCCC(=O)OCC [EPA-EE, eicosapentaenoic acid ethyl ester] | – | – | – | – | – | – | – | – | – | – | – |
| DHA-EE>EPA-EE>SDA-EE>ALA-EE | DHA-EE>EPA-EE>SDA-EE>ALA-EE | CC/C=C\C/C=C\C/C=C\C/C=C\CCCCC(=O)OCC [SDA-EE, stearidonic acid ethyl ester] | – | – | – | – | – | – | – | – | – | – | – |
